Test results from ChEMBL document CHEMBL1201862, “PubChem BioAssay data set” (2004).
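Five compound concentrations were applied to cells in 96-well plates for 48 hours; endpoints were derived by simple linear interpolation of the resulting dose-response curve. Abbreviation: GI50, concentration required for 50% inhibition of growth.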 Activity calls are given as the source filed them. No stated cut-off is given here; in the data, active = GI50 up to about 1.1 µM and inactive = higher.

How the values were obtained:
Test in all cases: inhibition of tumour cell growth, NCI panel, 48 h
MOLT-4 = system: MOLT-4
DU-145 = system: DU-145
K562 = system: K562
Hs-578T = system: Hs-578T
NCI-H23 = system: NCI-H23
SR = system: SR
KM12 = system: KM12
TK-10 = system: TK-10
HOP-62 = system: HOP-62
RPMI-8226 = system: RPMI-8226
NCI-H226 = system: NCI-H226
CCRF-CEM = system: CCRF-CEM
SF-539 = system: SF-539
OVCAR-8 = system: OVCAR-8
HCC 2998 = system: HCC 2998
HL-60 = system: HL-60
SF-268 = system: SF-268
MDA-MB-435 = system: MDA-MB-435
UACC-62 = system: UACC-62
Malme-3M = system: Malme-3M

Compound | GI50 (MOLT-4) | GI50 (DU-145) | GI50 (K562) | GI50 (Hs-578T) | GI50 (NCI-H23) | GI50 (SR) | GI50 (KM12) | GI50 (TK-10) | GI50 (HOP-62) | GI50 (RPMI-8226) | GI50 (NCI-H226) | GI50 (CCRF-CEM) | GI50 (SF-539) | GI50 (OVCAR-8) | GI50 (HCC 2998) | GI50 (HL-60) | GI50 (SF-268) | GI50 (MDA-MB-435) | GI50 (UACC-62) | GI50 (Malme-3M)
Cc1ccc(F)c2[nH]c(-c3ccccc3)cc(=O)c12 | 3.94 µM (inactive) | 8.04 µM (inactive) | 2.23 µM (inactive) | 14.9 µM (inactive) | 9.46 µM (inactive) | 2.99 µM (inactive) | 3.03 µM (inactive) | 14.6 µM (inactive) | 5.9 µM (inactive) | 3.96 µM (inactive) | 40.1 µM (inactive) | 4.48 µM (inactive) | 4.34 µM (inactive) | 6.11 µM (inactive) | 11.9 µM (inactive) | 3.39 µM (inactive) | 14.5 µM (inactive) | 1.18 µM (inactive) | 3.84 µM (inactive) | 17.9 µM (inactive)
c1ccc2[nH]c(C3CCCCO3)nc2c1 (centres undefined) | > 100 µM (inactive) | > 100 µM (inactive) | > 100 µM (inactive) | > 100 µM (inactive) | > 100 µM (inactive) | > 100 µM (inactive) | 50.4 µM (inactive) | > 100 µM (inactive) | > 100 µM (inactive) | > 100 µM (inactive) | 6.41 µM (inactive) | > 100 µM (inactive) | > 100 µM (inactive) | > 100 µM (inactive) | > 100 µM (inactive) | > 100 µM (inactive) | > 100 µM (inactive) | > 100 µM (inactive) | > 100 µM (inactive) | > 100 µM (inactive)
CCOC(=O)N1CCC2(CC1)CC(=O)N(Nc1ccccc1)C2=O | > 100 µM (inactive) | > 100 µM (inactive) | 16.9 µM (inactive) | 41.1 µM (inactive) | > 100 µM (inactive) | 32.1 µM (inactive) | 92.7 µM (inactive) | > 100 µM (inactive) | > 100 µM (inactive) | > 100 µM (inactive) | > 100 µM (inactive) | > 100 µM (inactive) | 27.5 µM (inactive) | > 100 µM (inactive) | > 100 µM (inactive) | 28.9 µM (inactive) | > 100 µM (inactive) | 30.8 µM (inactive) | 32.1 µM (inactive) | > 100 µM (inactive)
COc1ccc(Nc2c(C#N)c3n(c4ccccc24)c2ccccc2[n+]3C)cc1OC | 1.68 µM (inactive) | 2.81 µM (inactive) | 2.33 µM (inactive) | 2.86 µM (inactive) | 2.94 µM (inactive) | 6.46 µM (inactive) | 3.98 µM (inactive) | 2.56 µM (inactive) | 3.24 µM (inactive) | 1.98 µM (inactive) | 3.05 µM (inactive) | > 100 µM (inactive) | 1.84 µM (inactive) | 1.67 µM (inactive) | 4.17 µM (inactive) | 3.84 µM (inactive) | 1.76 µM (inactive) | 3.73 µM (inactive) | 3.15 µM (inactive) | 3.82 µM (inactive)
O=N/N=c1\o[n-][n+](CCc2ccccc2)c1Cc1/c(=N/N=O)o[n-][n+]1CCc1ccccc1 | > 100 µM (inactive) | 55.5 µM (inactive) | 25.2 µM (inactive) | 28.7 µM (inactive) | 28.4 µM (inactive) | 31.2 µM (inactive) | 78.2 µM (inactive) | 25.2 µM (inactive) | 23.2 µM (inactive) | 43.1 µM (inactive) | 29.9 µM (inactive) | > 100 µM (inactive) | 20.7 µM (inactive) | 21.7 µM (inactive) | 44.9 µM (inactive) | 30.8 µM (inactive) | 32 µM (inactive) | 39.7 µM (inactive) | 51.2 µM (inactive) | 24.2 µM (inactive)
Cc1nc(N)c(N2CCN([N+](=O)[O-])CC2)c(O)n1 | > 100 µM (inactive) | > 100 µM (inactive) | > 100 µM (inactive) | > 100 µM (inactive) | > 100 µM (inactive) | > 100 µM (inactive) | > 100 µM (inactive) | > 100 µM (inactive) | > 100 µM (inactive) | > 100 µM (inactive) | > 100 µM (inactive) | > 100 µM (inactive) | > 100 µM (inactive) | > 100 µM (inactive) | > 100 µM (inactive) | > 100 µM (inactive) | > 100 µM (inactive) | > 100 µM (inactive) |  | > 100 µM (inactive)
CC(=O)NC(NCCN)(c1ccccc1)c1ccccc1 | > 100 µM (inactive) | > 100 µM (inactive) | > 100 µM (inactive) | > 100 µM (inactive) | > 100 µM (inactive) | > 100 µM (inactive) | > 100 µM (inactive) | > 100 µM (inactive) | > 100 µM (inactive) | > 100 µM (inactive) | > 100 µM (inactive) | > 100 µM (inactive) | > 100 µM (inactive) | > 100 µM (inactive) | > 100 µM (inactive) | > 100 µM (inactive) | > 100 µM (inactive) | > 100 µM (inactive) |  | > 100 µM (inactive)
CCOC(=O)C(=CNc1ccc(F)c(F)c1)C(=O)OCC | 46 µM (inactive) | > 100 µM (inactive) | 39.4 µM (inactive) | > 100 µM (inactive) | > 100 µM (inactive) | 39.2 µM (inactive) | > 100 µM (inactive) | > 100 µM (inactive) | > 100 µM (inactive) | 64.1 µM (inactive) | > 100 µM (inactive) | 54.5 µM (inactive) | > 100 µM (inactive) | > 100 µM (inactive) | > 100 µM (inactive) | 66.1 µM (inactive) | > 100 µM (inactive) | > 100 µM (inactive) |  | > 100 µM (inactive)
CCCCc1ccc(-n2c(C)c(COC(=O)NC)c(COC(=O)NC)c2C)cc1 |  | 6.98 µM (inactive) | 6.03 µM (inactive) | 16.6 µM (inactive) | 7.28 µM (inactive) | 0.818 µM (active) | 12.7 µM (inactive) | 2.28 µM (inactive) | 8.97 µM (inactive) | 4.47 µM (inactive) | 1.05 µM (active) | 2.92 µM (inactive) | 4.37 µM (inactive) | 4.16 µM (inactive) | 12.7 µM (inactive) | 3.56 µM (inactive) | 4.81 µM (inactive) | 12.5 µM (inactive) | 2.29 µM (inactive) | 6.07 µM (inactive)
COc1ccc(/C=C\c2cc(OC)c(OC)c(OC)c2)cc1OC(=O)NCCN(C)C | 0.000145 µM (active) | 0.000307 µM (active) | < 0.0001 µM (active) | 0.000137 µM (active) | 0.000121 µM (active) | 0.000154 µM (active) |  | 0.297 µM (active) | 0.000151 µM (active) | 0.00014 µM (active) | 0.0064 µM (active) | 0.000133 µM (active) | 0.000133 µM (active) | 0.000143 µM (active) | 0.0631 µM (active) | < 0.0001 µM (active) |  | < 0.0001 µM (active) | < 0.0001 µM (active) | 0.00284 µM (active)
